Source: patent publication US4900729A, “Thieno-1,4-diazepines” (Boehringer Ingelheim KG, priority 1986, dated 1990)
pIC50: −log10 of the molar value.

Test system: human thrombocytes (PAF-induced aggregation)
Test: inhibition of PAF-induced aggregation of human thrombocytes in vitro
Assay type: cell-based
Details: Homo sapiens, PAF-induced aggregation, read-out: IC50 (concentration for a 50% inhibition of aggregation)
Protocol: The PAF-antagonistic activity of some compounds of formula I was investigated by means of the inhibition of blood platelet aggregation in vitro and the antagonising of the PAF-induced bronchoconstriction in anaesthetised guinea pigs, the lowering of blood pressure in anaesthetised rats and skin wheals in rats. Moreover, these compounds were tested for any possible side effects on the central nervous system.
1. In vitro tests: inhibition of blood platelet aggregation
In order to determine the PAF-antagonistic activity of substances, the PAF-induced aggregation of human thrombocytes in vitro was used. In order to obtain thrombocyte-rich plasma (TRP) blood was taken from an unconstricted vein using a plastic syringe containing 3.8% of sodium citrate solution. The ratio of sodium citrate solution to blood was 1:9. After careful mixing, the citrated blood was centrifuged for 20 minutes at 150×g (1200 rpm). The thrombocyte aggregation was measured using the method developed by Born and Cross (G. V. R. Born and M. J. Cross, J. Physiol. 168, 178 (1963)), in which PAF is added to the TRP with constant stirring in order to initiate aggregation.
The test substance is added 2 to 3 minutes before aggregation is induced, in a volume of 10 μl. The solvent used is either distilled water, ethanol and/or dimethylsulphoxide. The controls were given corresponding volumes of this solvent. After the initial absorption had been recorded (2 to 3 minutes) aggregation was induced with PAF (5×10^-8 M).
The maximum of the first aggregation wave is used to assess the effects of the substance. The PAF-induced maximum absorption rate (=maximum aggregation×100%) is simultaneously tested in a parallel mixture (=control mixture in one of the channels of the 2-channel aggregometer) with each test batch (second channel) and is used as the 100% value.
The level of aggregation achieved under the effect of the […] is given […].
Each test substance is tested at concentrations of from 10^-3 to 10^-8 M with a random sampling range of n=4 in order to investigate an inhibiting effect on the PAF-induced thrombocyte aggregation. A concentration-activity curve is then plotted using 3 concentrations and the IC50 is determined (concentration for a 50% inhibition of aggregation). The IC values of compounds of general formula I are generally around levels of less than 9 μM.

| Structure (SMILES) | pIC50 |
| --- | --- |
| Cc1nnc2n1-c1ccc(Cl)cc1C(c1ccccc1Cl)=NC2 [Triazolam, triazolam, reference compound] | 5.05 |

Same assay, conditions: PAF-induced aggregation, read-out: IC50 (concentration for a 50% inhibition of aggregation)

| Structure (SMILES) | pIC50 |
| --- | --- |
| Cc1nnc2n1-c1ccc(Cl)cc1C(c1ccccc1)=NC2 [Alprazolam, alprazolam, reference compound] | 4.85 |

Same assay, conditions: Platelet, Table A, PAF 5×10^-8 M, human thrombocyte-rich plasma, read-out: IC50 (inhibition of blood platelets)

| Structure (SMILES) | pIC50 |
| --- | --- |
| CC(=O)OCCCc1cc2c(s1)-n1c(Br)nnc1CN=C2c1ccccc1Cl [Example 13, 2-(3-Acetoxypropyl)-4-(2-chlorophenyl)-9-bromo-6H-thieno[3,2-f][1,2,4]triazolo[4,3-a][1,4]diazepine] | 6.52 |
| Cc1nnc2n1-c1sc(CCCCCCCN3CCN(C)CC3)cc1C(c1ccccc1Cl)=NC2 [Example 49] | 6.00 |
| Cc1nnc2n1-c1sc(CCCn3cncn3)cc1C(c1ccccc1Cl)=NC2 [Example 64] | > 6.70 |
| CC(=O)OCCCCCCCc1cc2c(s1)-n1c(C)nnc1CN=C2c1ccccc1Cl [Example 4, 7-[4-(2-Chlorophenyl)-9-methyl-6H-thieno[3,2-f][1,2,4]triazolo[4,3-a][1,4]diazepin-2-yl]heptyl acetate] | > 6.70 |
| CC(=O)OCCCc1cc2c(s1)-n1c(C)nnc1CN=C2c1ccccc1Cl [Example 2, 3-[4-(2-Chlorophenyl)-9-methyl-6H-thieno[3,2-f][1,2,4]triazolo[4,3-a][1,4]diazepin-2-yl]propyl acetate] | > 6.70 |
| Cc1nnc2n1-c1sc(CCCCCCCN3C(=O)c4ccccc4C3=O)cc1C(c1ccccc1Cl)=NC2 [Example 8, 2-(7-N-Phthalimidoheptyl)-4-(2-chlorophenyl)-9-methyl-6H-thieno[3,2-f][1,2,4]triazolo[4,3-a][1,4]-diazepine] | > 6.52 |
| Cc1nnc2n1-c1sc(CCCCCCC=O)cc1C(c1ccccc1Cl)=NC2 [Example 12, 2-(6-Formylhexyl)-4-(2-chlorophenyl)-9-methyl-6H-thieno[3,2-f][1,2,4]triazolo[4,3-a][1,4]diazepine] | 6.52 |
| Cc1nnc2n1-c1sc(CCCNCCN3CCOCC3)cc1C(c1ccccc1Cl)=NC2 [Example 75] | 5.72 |
| Cc1nnc2n1-c1sc(CCCN3CCCCC3)cc1C(c1ccccc1Cl)=NC2 [Example 45] | 6.52 |
| Cc1nnc2n1-c1sc(CCCN3CCOCC3)cc1C(c1ccccc1)=NC2 [Example 54] | 5.96 |
| Cc1nnc2n1-c1sc(CCCN3CCOCC3)cc1C(c1ccccc1Cl)NC2 (stereo not shown) [Example 14l, 2-[3-(N-Morpholinyl)-n-propyl]-4-(2-chlorophenyl)-9-methyl-4,5-dihydro-6H-thieno[3,2-f][1,2,4]triazolo-[4,3-a][1,4]diazepine] | 6.22 |
| Cc1nnc2n1-c1ccc(Cl)cc1C(c1ccccc1Cl)=NC2 [Triazolam, triazolam, reference compound] | 5.05 |
| Cc1nnc2n1-c1sc(CCS(=O)(=O)N3CCN(C)CC3)cc1C(c1ccccc1Cl)=NC2 [Example 1, 2-[4-(2-Chlorophenyl)-9-methyl-6H-thieno[3,2-f][1,2,4]triazolo[4,3-a][1,4]diazepin-2-yl]-ethane-1-sulphonic acid-N'-methylpiperazide] | 6.52 |
| Cc1nnc2n1-c1sc(CCCCCCCOC(=O)C(C)(C)C)cc1C(c1ccccc1Cl)=NC2 [Example 27] | 6.70 |
| Cc1nnc2n1-c1sc(CCCCCCCN)cc1C(c1ccccc1Cl)=NC2 [Example 9, 2-(7-Amino-heptyl)-4-(2-chlorophenyl)-9-methyl-6H-thieno[3,2-f][1,2,4]triazolo[4,3-a][1,4]diazepine] | 6.70 |
| Cc1nnc2n1-c1sc(CCCN3CCOCC3)cc1C(c1ccccc1Cl)=NC2 [Example 11, 2-(3-(N-Morpholinyl)propyl)-4-(2-chlorophenyl)-9-methyl-6H-thieno[3,2-f][1,2,4]triazolo[4,3-a][1.4]-diazepine] | > 6.70 |
| CC(=O)NCCCCCCCc1cc2c(s1)-n1c(C)nnc1CN=C2c1ccccc1Cl [Example 10, 2-(7-Acetylaminoheptyl)-4-(2-chlorophenyl)-9-methyl-6H-thieno[3,2-f][1,2,4]triazolo[4,3-a][1,4]diazepine] | 5.77 |
| CC(=O)OCCCCCCCc1cc2c(s1)-n1c(C)cnc1CN=C2c1ccccc1Cl [Example 58] | > 6.70 |
| CC(=O)OCCCc1cc2c(s1)-n1c(C)cnc1CN=C2c1ccccc1Cl [Example 56] | 6.52 |
| Cc1nnc2n1-c1sc(CC(C)C(=O)N3CCOCC3)cc1C(c1ccccc1Cl)=NC2 (stereo not shown) [Example 14i, 2-[2-(Morpholin-4-yl-carbonyl)-n-propyl]-4-(2-chlorophenyl)-9-methyl-6H-thieno[3,2-f][1,2,4]triazolo[4,3-a][1,4]diazepine] | 6.40 |
| Cc1nnc2n1-c1sc(CCCOC(=O)C(C)(C)C)cc1C(c1ccccc1Cl)=NC2 [Example 25] | 6.05 |
| Cc1nnc2n1-c1sc(CCCO)cc1C(c1ccccc1Cl)NC2 (stereo not shown) [Example 98] | 5.64 |
| CCN(CC)CCCc1cc2c(s1)-n1c(C)nnc1CN=C2c1ccccc1Cl [Example 71] | 6.05 |
| Cc1nnc2n1-c1sc(CCCCCCCNCCN(C)C)cc1C(c1ccccc1Cl)=NC2 [Example 60] | 6.05 |
| Cc1nnc2n1-c1sc(CCCCCCCOS(C)(=O)=O)cc1C(c1ccccc1Cl)=NC2 [Example 23] | 6.05 |
| Cc1nnc2n1-c1sc(CCS(=O)(=O)N3CCOCC3)cc1C(c1ccccc1Cl)=NC2 [Example 20] | 6.52 |
| CC(=O)OCCCc1cc2c(s1)-n1cnnc1CN=C2c1ccccc1Cl [Example 50] | 6.22 |

Same assay, conditions: Table A, PAF 5×10^-8 M, human thrombocyte-rich plasma, read-out: IC50 (inhibition of blood platelets)

| Structure (SMILES) | pIC50 |
| --- | --- |
| Cc1nnc2n1-c1ccc(Cl)cc1C(c1ccccc1)=NC2 [Alprazolam, alprazolam, reference compound] | 4.85 |

Test system: not given
Test: not given
Details: commercially available tranquillisers or hypnotics; cited from earlier work

| Structure (SMILES) | sedative effect of known benzodiazepines |
| --- | --- |
| Cc1nnc2n1-c1ccc(Cl)cc1C(c1ccccc1Cl)=NC2 [Triazolam, triazolam, reference compound] | marked sedative effect |
